Experimental data: patent US20070027143A1, “Novel substituted 2,3-benzodiazepine derivatives” (priority 2003, published 2007)

First: Cc1nnc(N2N=C(c3ccc(N)cc3)c3cc(Cl)ccc3CC2C)s1 (racemic) [Example 94, (±)-1-(4-Aminophenyl)-8-chloro-4-methyl-3-(5-methyl-1,3,4-thiadiazol-2-yl)-4,5-dihydro-3H-[2,3]benzodiazepine]
Second: COc1ccc2c(c1)C(c1ccc(N)cc1)=NN(c1nnc(C)s1)C(C)C2 (racemic) [Example 98, (±)-1-(4-Aminophenyl)-4-methyl-3-(5-methyl-1,3,4-thiadiazol-2-yl)-8-methoxy-4,5-dihydro-3H-[2,3]benzodiazepine]
The melting point of the first is lower: 131 to 133 °C for the first, 180 to 184 °C for the second.

Compared with Cc1nnc(N2N=C(c3ccc(N)c(C)c3)c3cc4c(cc3CC2C)OCO4)s1 (racemic) [Example 95, (±)-5-(4-Amino-3-methylphenyl)-8-methyl-7-(5-methyl-1,3,4-thiadiazol-2-yl)-8,9-dihydro-7H-1,3-dioxolo-[4,5-h][2,3]benzodiazepine], CC(=O)Nc1ccc(C2=NN(c3nnc(C)s3)C(C)Cc3cc4c(cc32)OCO4)cc1C (racemic) [Example 131, (±)-5-(4-Acetylamino-3-methylphenyl)-8-methyl-7-(5-methyl-1,3,4-thiadiazol-2-yl)-8,9-dihydro-7H-1,3-dioxolo[4,5-h][2,3]benzodiazepine] is higher in melting point: 140 to 144 °C for the first, 258 to 262 °C for the second.

Compared with Cc1nnc(N2N=C(c3cccc(N)c3)c3cc4c(cc3CC2C)OCO4)s1 (racemic) [Example 97, (±)-5-(3-Aminophenyl)-8-methyl-7-(5-methyl-1,3,4-thiadiazol-2-yl)-8,9-dihydro-7H-1,3-dioxolo-[4,5-h][2,3]benzodiazepine], Cc1nc(N2N=C(c3ccc(N)cc3)c3cc4c(cc3CC2C)OCO4)cs1 (racemic) [Example 110, (±)-5-(4-Aminophenyl)-8-methyl-7-(2-methyl-thiazol-4-yl)-8,9-dihydro-7H-1,3-dioxolo-[4,5-h][2,3]benzodiazepine] is lower in melting point: 197 to 198 °C for the first, 132 to 135 °C for the second.

First: CC1=NN=C(N2N=C(c3ccc(N)cc3)c3cc4c(cc3CC2C)OCO4)SC1 (racemic) [Example 99, (±)-5-(4-Aminophenyl)-8-methyl-7-(5-methyl-6H-1,3,4-thiadiazin-2-yl)-8,9-dihydro-7H-1,3-dioxolo-[4,5-h][2,3]benzodiazepine]
Second: CC1Cc2cc3c(cc2C(c2ccc(N)cc2)=NN1C1=NNC(=O)CS1)OCO3 (racemic) [Example 100, (±)-5-(4-Aminophenyl)-7-(5,6-dihydro-5-oxo-4H-1,3,4-thiadiazin-2-yl)-8-methyl-8,9-dihydro-7H-1,3-dioxolo[4,5-h][2,3]benzodiazepine]
The melting point of the first is lower: 154 to 157 °C for the first, 172 to 176 °C for the second.

Compared with CC1Cc2cc3c(cc2C(c2ccc(N)cc2)=NN1c1n[nH]c(=O)s1)OCO3 (racemic) [Example 101, (±)-5-(4-Aminophenyl)-8-methyl-7-(5-oxo-4,5-dihydro-1,3,4-thiadiazol-2-yl)-8,9-dihydro-7H-1,3-dioxolo-[4,5-h][2,3]benzodiazepine], CC1Cc2cc3c(cc2C(c2ccc(N)cc2)=NN1c1nc(=O)n(C)s1)OCO3 (racemic) [Example 103, (±)-5-(4-Aminophenyl)-8-methyl-7-(2-methyl-3-oxo-2,3-dihydro-1,2,4-thiadiazol-5-yl)-8,9-dihydro-7H-1,3-dioxolo[4,5-h][2,3]benzodiazepine] is lower in melting point: 263 to 264 °C for the first, 213 °C for the second.

Compared with Cc1nc(N2N=C(c3ccc(N)cc3)c3cc4c(cc3CC2C)OCO4)no1 (racemic) [Example 109, (±)-5-(4-Aminophenyl)-8-methyl-7-(5-methyl-1,2,4-oxadiazol-3-yl)-8,9-dihydro-7H-1,3-dioxolo-[4,5-h][2,3]benzodiazepine], Cc1cc(N2N=C(c3ccc(N)cc3)c3cc4c(cc3CC2C)OCO4)on1 (racemic) [Example 185, (±)-5-(4-Aminophenyl)-8-methyl-7-(3-methyl-isoxazol-5-yl)-8,9-dihydro-7H-1,3-dioxolo-[4,5-h][2,3]benzodiazepine] is lower in melting point: 130 to 135 °C for the first, 100 to 103 °C for the second.

First: CC1Cc2cc3c(cc2C(c2ccc(N)cc2)=NN1c1ncccn1)OCO3 (racemic) [Example 111, (±)-5-(4-Aminophenyl)-8-methyl-7-(2-pyrimidinyl)-8,9-dihydro-7H-1,3-dioxolo[4,5-h][2,3]benzodiazepine]
Second: CC(=O)Nc1ccc(C2=NN(c3ncccn3)C(C)Cc3cc4c(cc32)OCO4)cc1 (racemic) [Example 128, (±)-5-(4-Acetylaminophenyl)-8-methyl-7-(2-pyrimidinyl)-8,9-dihydro-7H-1,3-dioxolo-[4,5-h][2,3]benzodiazepine]
The melting point of the first is higher: 233 to 235 °C for the first, 162 to 163 °C for the second.

CC1Cc2cc3c(cc2C(c2ccc(N)cc2)=NN1c1ccc(Cl)nn1)OCO3 (racemic) [Example 112, (±)-5-(4-Aminophenyl)-7-(3-chloropyridazin-6-yl)-8-methyl-8,9-dihydro-7H-1,3-dioxolo-[4,5-h][2,3]benzodiazepine] and CC(=O)Nc1ccc(C2=NN(c3ccc(Cl)nn3)C(C)Cc3cc4c(cc32)OCO4)cc1 (racemic) [Example 129, (±)-5-(4-Acetylaminophenyl)-7-(3-chloro-pyridazin-6-yl)-8-methyl-8,9-dihydro-7H-1,3-dioxolo-[4,5-h][2,3]benzodiazepine] cannot be ordered by melting point: 164 to 166 °C for the first, 164 to 170 °C for the second.

First: CC1Cc2cc3c(cc2C(c2ccc(N)cc2)=NN1C1N=CNN1)OCO3 (racemic) [Example 113, (±)-5-(4-Aminophenyl)-8-methyl-7-(1H(2H)1,2,4-triazol-3-yl)-8,9-dihydro-7H-1,3-dioxolo-[4,5-h][2,3]benzodiazepine]
Second: CC1=NC(N2N=C(c3ccc(N)cc3)c3cc4c(cc3CC2C)OCO4)NN1 (racemic) [Example 114, (±)-5-(4-Aminophenyl)-8-methyl-7-(5-methyl-1H(2H)-1,2,4-triazol-3-yl)-8,9-dihydro-7H-1,3-dioxolo-[4,5-h][2,3]benzodiazepine]
The melting point of the first is higher: 178 to 181 °C for the first, 166 to 169 °C for the second.

First: CC1Cc2cc3c(cc2C(c2ccc(N)cc2)=NN1c1ncnn1C)OCO3 (racemic) [Example 115, (±)-5-(4-Aminophenyl)-8-methyl-7-(2-methyl-2H-1,2,4-triazol-3-yl)-8,9-dihydro-7H-1,3-dioxolo-[4,5-h][2,3]benzodiazepine]
Second: Cc1nc(N2N=C(c3ccc(N)cc3)c3cc4c(cc3CC2C)OCO4)n(C)n1 (racemic) [Example 117, (±)-5-(4-Aminophenyl)-8-methyl-7-(2,5-dimethyl-2H-1,2,4-triazol-3-yl)-8,9-dihydro-7H-1,3-dioxolo-[4,5-h][2,3]benzodiazepine]
The melting point of the first is lower: 182 to 183 °C for the first, 185 to 187 °C for the second.

First: CC1Cc2cc3c(cc2C(c2ccc(N)cc2)=NN1c1ncn(C)n1)OCO3 (racemic) [Example 116, (±)-5-(4-Aminophenyl)-8-methyl-7-(1-methyl-1H-1,2,4-triazol-3-yl)-8,9-dihydro-7H-1,3-dioxolo-[4,5-h][2,3]benzodiazepine]
Second: Cc1ncc(N2N=C(c3ccc(N)cc3)c3cc4c(cc3CC2C)OCO4)o1 (racemic) [Example 187, (±)-5-(4-Aminophenyl)-8-methyl-7-(2-methyl-1,3-oxazol-5-yl)-8,9-dihydro-7H-1,3-dioxolo-[4,5-h][2,3]benzodiazepine]
The melting point of the first is higher: 165 to 168 °C for the first, 148 to 150 °C for the second.

First: CC(=O)Nc1ccc(C2=NN(c3ncc(C)s3)C(C)Cc3cc4c(cc32)OCO4)cc1 (racemic) [Example 120, (±)-5-(4-Acetylaminophenyl)-8-methyl-7-(5-methyl-thiazol-2-yl)-8,9-dihydro-7H-1,3-dioxolo-[4,5-h][2,3]benzodiazepine]
Second: CC(=O)Nc1ccc(C2=NN(C3=NCCS3)C(C)Cc3cc4c(cc32)OCO4)cc1 (racemic) [Example 122, (±)-5-(4-Acetylaminophenyl)-7-(4,5-dihydro-thiazol-2-yl)-8-methyl-8,9-dihydro-7H-1,3-dioxolo-[4,5-h][2,3]benzodiazepine]
The melting point of the first is lower: 176 to 179 °C for the first, 211 to 213 °C for the second.

Compared with CC(=O)Nc1ccc(C2=NN(C3=NCCO3)C(C)Cc3cc4c(cc32)OCO4)cc1 (racemic) [Example 127, (±)-5-(4-Acetylaminophenyl)-7-(4,5-dihydro-oxazol-2-yl)-8-methyl-8,9-dihydro-7H-1,3-dioxolo-[4,5-h][2,3]benzodiazepine], C[C@H]1Cc2cc3c(cc2C(c2ccc(N)cc2)=NN1C1=NCCS1)OCO3 [Example 70, (S)-5-(4-Aminophenyl)-7-(4,5-dihydro-thiazol-2-yl)-8-methyl-8,9-dihydro-7H-1,3-dioxolo-[4,5-h][2,3]benzodiazepine] is higher in melting point: 124 to 128 °C for the first, 150 to 152 °C for the second.

CC1Cc2cc3c(cc2C(c2ccc(N)cc2)=NN1C1=NC(=O)C(C)(C)S1)OCO3 (racemic) [Example 193, (±)-5-(4-Aminophenyl)-8-methyl-7-(5,5-dimethyl-4-oxo-4,5-dihydrothiazol-2-yl)-8,9-dihydro-7H-1,3-dioxolo-[4,5-h][2,3]benzodiazepine] and C[C@H]1Cc2cc3c(cc2C(c2ccc(N)cc2)=NN1c1nccs1)OCO3 [Example 62, (S)-5-(4-Aminophenyl)-8-methyl-7-(2-thiazolyl)-8,9-dihydro-7H-1,3-dioxolo[4,5-h][2,3]benzodiazepine] cannot be ordered by melting point: 124 to 130 °C for the first, 124 to 128 °C for the second.

Work on CCc1nnc(N2N=C(c3ccc([N+](=O)[O-])cc3)c3cc4c(cc3C[C@H]2C)OCO4)s1 [Example 31, (R)-7-(5-Ethyl-1,3,4-thiadiazol-2-yl)-8-methyl-5-(4-nitrophenyl)-8,9-dihydro-7H-1,3-dioxolo[4,5-h][2,3]benzodiazepine] yielded a melting point of 105 °C.

With CC1Cc2cc3c(cc2C(c2ccc(N)cc2)=NN1c1nc(C(=O)O)cs1)OCO3 (racemic) [Example 106, (±)-5-(4-Aminophenyl)-7-(4-carboxy-thiazol-2-yl)-8-methyl-8,9-dihydro-7H-1,3-dioxolo-[4,5-h][2,3]benzodiazepine] the melting point was > 260 °C (dec.).
CC1Cc2cc3c(cc2C(c2ccc(N)cc2)=NN1c1nnn[nH]1)OCO3 (racemic) [Example 107, (±)-5-(4-Aminophenyl)-8-methyl-7-(5-tetrazolyl)-8,9-dihydro-7H-1,3-dioxolo[4,5-h][2,3]benzodiazepine] showed a melting point of over 360 °C.
